Type in all cases: biochemical
Assay [1] addresses T1, collagenase (Homo sapiens, UniProt P03956).
T1 sequence (P03956 100-469): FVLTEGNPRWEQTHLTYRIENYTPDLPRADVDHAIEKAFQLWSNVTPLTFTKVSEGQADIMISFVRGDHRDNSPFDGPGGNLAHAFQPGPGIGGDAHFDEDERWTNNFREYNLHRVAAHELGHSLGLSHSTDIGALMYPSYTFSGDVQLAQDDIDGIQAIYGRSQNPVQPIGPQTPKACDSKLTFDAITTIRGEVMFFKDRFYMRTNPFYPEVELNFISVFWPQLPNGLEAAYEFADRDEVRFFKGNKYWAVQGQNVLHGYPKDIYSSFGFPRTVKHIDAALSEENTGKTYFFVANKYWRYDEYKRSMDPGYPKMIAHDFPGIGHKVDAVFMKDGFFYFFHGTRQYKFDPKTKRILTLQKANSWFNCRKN
Briefly: Inhibition of collagenase cleavage of thioester peptide Ac-Pro-Leu-Gly-S-Leu-Leu-Gly-OC2H5. To be noted: read-out: Inhibition of Collagenase pH = 6.5 (IC50). The source says: (§1) The peptide portion is herein designated SEQ ID No: 2:.

Assay [2] concerns the target T2, 72 kD Galatinase (gelatinase) (Homo sapiens, UniProt P08253).
T2 sequence (P08253 110-660): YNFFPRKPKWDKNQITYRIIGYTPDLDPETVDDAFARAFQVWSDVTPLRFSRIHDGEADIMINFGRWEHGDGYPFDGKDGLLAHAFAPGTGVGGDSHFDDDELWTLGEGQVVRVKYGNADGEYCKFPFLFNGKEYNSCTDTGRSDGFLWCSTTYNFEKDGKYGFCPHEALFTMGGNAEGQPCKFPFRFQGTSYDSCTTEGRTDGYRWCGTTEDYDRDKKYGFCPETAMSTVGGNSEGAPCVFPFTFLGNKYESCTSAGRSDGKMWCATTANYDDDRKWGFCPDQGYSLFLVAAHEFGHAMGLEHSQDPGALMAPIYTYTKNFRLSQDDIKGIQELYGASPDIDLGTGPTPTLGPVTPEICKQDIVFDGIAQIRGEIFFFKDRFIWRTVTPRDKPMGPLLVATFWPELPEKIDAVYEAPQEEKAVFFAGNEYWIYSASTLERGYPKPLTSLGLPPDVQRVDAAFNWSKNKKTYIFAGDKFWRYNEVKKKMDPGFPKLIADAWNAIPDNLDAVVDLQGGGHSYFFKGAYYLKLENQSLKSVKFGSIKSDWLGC
Briefly: Inhibition of gelatinase-mediated cleavage of fluorogenic substrate Dnp-Pro-Leu-Gly-Leu-Trp-Ala-D-ArgNH2. The note with it: pH = 7.5.
Text: as §1

Assay [3] has as its target stromelysin (Homo sapiens, UniProt P08254). Briefly: Inhibition of stromelysin-mediated hydrolysis of substance P (HPLC-based assay). The note with it: pH = 7.5.

stromelysin, sequence (P08254 100-477): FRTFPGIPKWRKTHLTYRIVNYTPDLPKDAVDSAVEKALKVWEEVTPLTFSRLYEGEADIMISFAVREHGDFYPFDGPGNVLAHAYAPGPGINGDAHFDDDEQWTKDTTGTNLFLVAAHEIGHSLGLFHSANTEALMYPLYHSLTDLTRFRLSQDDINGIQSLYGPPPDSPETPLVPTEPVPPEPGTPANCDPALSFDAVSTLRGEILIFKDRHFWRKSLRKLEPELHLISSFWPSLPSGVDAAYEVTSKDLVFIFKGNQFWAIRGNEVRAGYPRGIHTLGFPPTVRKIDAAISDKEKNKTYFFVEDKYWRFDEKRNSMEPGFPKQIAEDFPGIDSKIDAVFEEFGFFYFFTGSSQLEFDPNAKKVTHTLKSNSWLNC

For the compound `CC(C)C[C@H](NC(=O)[C@H](CCc1ccccc1)N[C@H](C)C(=O)O)C(=O)Nc1ccccc1` [5a, N-[1(R)-Carboxy-ethyl]-α-(S)-(2-phenyl-ethyl)glycine-(L)-leucine, N-phenylamide], in assay [1], the half-maximal inhibitory concentration (IC50) (as a rule, the concentration that gives 50% inhibition) was found to be 60 nM. Further, the affinity in assay [2] corresponds to a Ki of 930 nM.
Consider `CC(C)C[C@H](NC(=O)[C@H](CCc1ccccc1)N[C@H](CCCCN1C(=O)c2ccccc2C1=O)C(=O)O)C(=O)Nc1ccccc1` [5d], for which the IC50 stood at 200 nM in assay [3] and 250 nM in assay [1]. In addition, in assay [2], the affinity corresponds to a Ki of 86 nM.

For the origin of these results see patent US5932551A, “Substituted N-carboxyalkylpeptidyl derivatives as antidegenerative active agents” (Merck & Co., Inc., priority 1997, dated 1999).
